According to patent US12559492B2, “BRAF degraders” (C4 Therapeutics, Inc., priority 2020, dated 2026):

Biological target: BRAF^V600E protein (Homo sapiens, UniProt P15056, V600E)
Assay: HiBiT cellular BRAF V600E degradation assay
Assay type: cell-based
Settings: 24 h incubation; for DC50: A375.10 cells (HiBiT tag knocked in at N-terminal of BRAF V600E), concentration at which 50% of total cellular BRAF V600E is degraded; for Emax: A375.10 cells, Emax = amount of residual protein remaining in the cell after compound treatment, read-out: HiBit 24 h Emax

BRAF^V600E protein, sequence (P15056 whole entry V600E): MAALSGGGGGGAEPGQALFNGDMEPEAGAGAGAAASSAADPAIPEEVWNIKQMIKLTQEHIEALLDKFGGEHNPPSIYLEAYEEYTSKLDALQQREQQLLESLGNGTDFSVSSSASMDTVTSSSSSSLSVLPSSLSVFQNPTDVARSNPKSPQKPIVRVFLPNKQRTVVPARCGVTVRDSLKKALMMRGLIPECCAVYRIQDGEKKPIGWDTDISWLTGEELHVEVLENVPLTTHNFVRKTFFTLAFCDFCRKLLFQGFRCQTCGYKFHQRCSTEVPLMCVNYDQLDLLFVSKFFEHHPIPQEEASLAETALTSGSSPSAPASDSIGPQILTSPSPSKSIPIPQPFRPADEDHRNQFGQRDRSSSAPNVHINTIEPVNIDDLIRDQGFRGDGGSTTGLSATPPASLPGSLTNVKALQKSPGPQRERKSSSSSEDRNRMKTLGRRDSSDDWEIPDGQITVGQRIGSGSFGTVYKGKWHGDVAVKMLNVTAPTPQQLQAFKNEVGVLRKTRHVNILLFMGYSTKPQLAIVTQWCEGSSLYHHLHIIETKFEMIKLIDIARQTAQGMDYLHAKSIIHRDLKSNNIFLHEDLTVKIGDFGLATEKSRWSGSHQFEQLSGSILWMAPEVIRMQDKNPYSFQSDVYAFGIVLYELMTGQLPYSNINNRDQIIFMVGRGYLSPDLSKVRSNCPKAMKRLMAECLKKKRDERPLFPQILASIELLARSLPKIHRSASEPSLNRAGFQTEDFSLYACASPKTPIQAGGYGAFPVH

SMILES	DC50	Emax
CCN(C)S(=O)(=O)Nc1cccc(C(=O)c2c[nH]c3ncc(-c4ccc(N5CCN(C(=O)CN6CCC(c7ccc(NC8CCC(=O)NC8=O)cc7)C(F)(F)C6)CC5)nc4)cc23)c1F (stereo not drawn) [Example 110, 5-[6-[4-[2-[4-[4-[(2,6-dioxo-3-piperidyl)amino]phenyl]-3,3-difluoro-1-piperidyl]acetyl]piperazin-1-yl]-3-pyridyl]-3-[3-[[ethyl(methyl)sulfamoyl]amino]-2-fluoro-benzoyl]-1H-pyrrolo[2,3-b]pyridine]	4.47 nM	7.75%
CCN(C)S(=O)(=O)Nc1cccc(C(=O)c2c[nH]c3ncc(-c4ccc(N5CCN(C(=O)CC6CCN(c7ccc(NC8CCC(=O)NC8=O)cc7F)CC6)CC5)nc4)cc23)c1F (stereo not drawn) [Example 111, 5-[6-[4-[2-[1-[4-[(2,6-dioxo-3-piperidyl)amino]-2-fluoro-phenyl]-4-piperidyl]acetyl]piperazin-1-yl]-3-pyridyl]-3-[3-[[ethyl(methyl)sulfamoyl]amino]-2-fluoro-benzoyl]-1H-pyrrolo[2,3-b]pyridine]	9.66 nM	15.6%
CCN(C)S(=O)(=O)Nc1cccc(C(=O)c2c[nH]c3ncc(-c4ccc(N5CCN(C(=O)CC6(O)CCN(c7ccc(NC8CCC(=O)NC8=O)cc7F)CC6)CC5)nc4)cc23)c1F (stereo not drawn) [Example 112, 5-[6-[4-[2-[1-[4-[(2,6-dioxo-3-piperidyl)amino]-2-fluoro-phenyl]-4-hydroxy-4-piperidyl]acetyl]piperazin-1-yl]-3-pyridyl]-3-[3-[[ethyl(methyl)sulfamoyl]amino]-2-fluoro-benzoyl]-1H-pyrrolo[2,3-b]pyridine]	6.46 nM	10.8%
CCN(C)S(=O)(=O)Nc1cccc(C(=O)c2c[nH]c3ncc(-c4ccc(N5CCN(C(=O)CC6(O)CCN(c7ccc(NC8CCC(=O)NC8=O)cn7)CC6)CC5)nc4)cc23)c1F (stereo not drawn) [Example 113, 5-[6-[4-[2-[1-[5-[(2,6-dioxo-3-piperidyl)amino]-2-pyridyl]-4-hydroxy-4-piperidyl]acetyl]piperazin-1-yl]-3-pyridyl]-3-[3-[[ethyl(methyl)sulfamoyl]amino]-2-fluoro-benzoyl]-1H-pyrrolo[2,3-b]pyridine]	26.3 nM	27.7%
CCN(C)S(=O)(=O)Nc1cccc(C(=O)c2c[nH]c3ncc(-c4ccc(N5CCN(C(=O)CC6(O)CCN(c7ccc(NC8CCC(=O)NC8=O)cc7F)C6)CC5)nc4)cc23)c1F (stereo not drawn) [Example 114, 5-[6-[4-[2-[1-[4-[(2,6-dioxo-3-piperidyl)amino]-2-fluoro-phenyl]-3-hydroxy-pyrrolidin-3-yl]acetyl]piperazin-1-yl]-3-pyridyl]-3-[3-[[ethyl(methyl)sulfamoyl]amino]-2-fluoro-benzoyl]-1H-pyrrolo[2,3-b]pyridine]	2.29 nM	10.9%
CCN(C)S(=O)(=O)Nc1cccc(C(=O)c2c[nH]c3ncc(-c4ccc(N5CCN(C(=O)CC6(O)CCN(c7ncc(NC8CCC(=O)NC8=O)cc7F)CC6)CC5)nc4)cc23)c1F (stereo not drawn) [Example 115, 5-[6-[4-[2-[1-[5-[(2,6-dioxo-3-piperidyl)amino]-3-fluoro-2-pyridyl]-4-hydroxy-4-piperidyl]acetyl]piperazin-1-yl]-3-pyridyl]-3-[3-[[ethyl(methyl)sulfamoyl]amino]-2-fluoro-benzoyl]-1H-pyrrolo[2,3-b]pyridine]	5.13 nM	12.2%
CCN(C)S(=O)(=O)Nc1cccc(C(=O)c2c[nH]c3ncc(-c4ccc(N5CCN(C(=O)CC6(O)CCN(c7ccc(NC8CCC(=O)NC8=O)cc7)CC6)CC5)cc4)cc23)c1F (stereo not drawn) [Example 116, 5-[4-[4-[2-[1-[4-[(2,6-dioxo-3-piperidyl)amino]phenyl]-4-hydroxy-4-piperidyl]acetyl]piperazin-1-yl]phenyl]-3-[3-[[ethyl(methyl)sulfamoyl]amino]-2-fluoro-benzoyl]-1H-pyrrolo[2,3-b]pyridine]	5.32 nM	13.4%
CCN(C)S(=O)(=O)Nc1cccc(C(=O)c2c[nH]c3ncc(-c4ccc(N5CCN(C(=O)CC6(O)CCN(c7ccc(NC8CCC(=O)NC8=O)cn7)CC6)CC5)cc4)cc23)c1F (stereo not drawn) [Example 117, 5-[4-[4-[2-[1-[5-[(2,6-dioxo-3-piperidyl)amino]-2-pyridyl]-4-hydroxy-4-piperidyl]acetyl]piperazin-1-yl]phenyl]-3-[3-[[ethyl(methyl)sulfamoyl]amino]-2-fluoro-benzoyl]-1H-pyrrolo[2,3-b]pyridine]	23.1 nM	25.3%
CCN(C)S(=O)(=O)Nc1cccc(C(=O)c2c[nH]c3ncc(-c4ccc(N5CCN(C(=O)CC6(O)CCN(c7ccc(NC8CCC(=O)NC8=O)cc7F)C6)CC5)cc4)cc23)c1F (stereo not drawn) [Example 118, 5-[4-[4-[2-[1-[4-[(2,6-dioxo-3-piperidyl)amino]-2-fluoro-phenyl]-3-hydroxy-pyrrolidin-3-yl]acetyl]piperazin-1-yl]phenyl]-3-[3-[[ethyl(methyl)sulfamoyl]amino]-2-fluoro-benzoyl]-1H-pyrrolo[2,3-b]pyridine]	27.2 nM	13.4%
CCN(C)S(=O)(=O)Nc1cccc(C(=O)c2c[nH]c3ncc(-c4ccc(N5CCN(C(=O)CC6(O)CCN(c7ccc(NC8CCC(=O)NC8=O)cc7F)CC6)CC5)cc4)cc23)c1F (stereo not drawn) [Example 119, 5-[4-[4-[2-[1-[4-[(2,6-dioxo-3-piperidyl)amino]-2-fluoro-phenyl]-4-hydroxy-4-piperidyl]acetyl]piperazin-1-yl]phenyl]-3-[3-[[ethyl(methyl)sulfamoyl]amino]-2-fluoro-benzoyl]-1H-pyrrolo[2,3-b]pyridine]	8.71 nM	10.5%
CCN(C)S(=O)(=O)Nc1cccc(C(=O)c2c[nH]c3ncc(-c4ccc(N5CCN(C(=O)CC6(O)CCN(c7ncc(NC8CCC(=O)NC8=O)cc7F)CC6)CC5)cc4)cc23)c1F (stereo not drawn) [Example 120, 5-[4-[4-[2-[1-[5-[(2,6-dioxo-3-piperidyl)amino]-3-fluoro-2-pyridyl]-4-hydroxy-4-piperidyl]acetyl]piperazin-1-yl]phenyl]-3-[3-[[ethyl(methyl)sulfamoyl]amino]-2-fluoro-benzoyl]-1H-pyrrolo[2,3-b]pyridine]	2.87 nM	9.99%
CCN(C)S(=O)(=O)Nc1ccc(F)c(C(=O)c2c[nH]c3ncc(-c4cnc(N5CCN(C(=O)CN6CCC(c7ccc(NC8CCC(=O)NC8=O)cc7)CC6)CC5)nc4)cc23)c1Cl (stereo not drawn) [Example 121, 3-[2-chloro-3-[[ethyl(methyl)sulfamoyl]amino]-6-fluoro-benzoyl]-5-[2-[4-[2-[4-[4-[(2,6-dioxo-3-piperidyl)amino]phenyl]-1-piperidyl]acetyl]piperazin-1-yl]pyrimidin-5-yl]-1H-pyrrolo[2,3-b]pyridine]	2.3 nM	4.98%
CCN(C)S(=O)(=O)Nc1ccc(F)c(C(=O)c2c[nH]c3ncc(-c4cnc(N5CCN(C(=O)CN6CCC(c7ccc(NC8CCC(=O)NC8=O)cc7)CC6)CC5)nc4)cc23)c1C (stereo not drawn) [Example 123, 5-[2-[4-[2-[4-[4-[(2,6-dioxo-3-piperidyl)amino]phenyl]-1-piperidyl]acetyl]piperazin-1-yl]pyrimidin-5-yl]-3-[3-[[ethyl(methyl)sulfamoyl]amino]-6-fluoro-2-methyl-benzoyl]-1H-pyrrolo[2,3-b]pyridine]	46.4 nM	11.7%
CCN(C)S(=O)(=O)Nc1ccc(F)c(C(=O)c2c[nH]c3ncc(C#CC4CCN(C(=O)CN5CCC(c6ccc(NC7CCC(=O)NC7=O)cc6F)CC5)CC4)cc23)c1F (stereo not drawn) [Example 124, 5-[2-[1-[2-[4-[4-[(2,6-dioxo-3-piperidyl)amino]-2-fluoro-phenyl]-1-piperidyl]acetyl]-4-piperidyl]ethynyl]-3-[3-[[ethyl(methyl)sulfamoyl]amino]-2,6-difluoro-benzoyl]-1H-pyrrolo[2,3-b]pyridine]	22.1 nM	13%
CCN(C)S(=O)(=O)Nc1ccc(F)c(C(=O)c2c[nH]c3ncc(-c4cnc(N5CCC(C(=O)N6CCC(c7ccc(NC8CCC(=O)NC8=O)cc7)CC6)CC5)nc4)cc23)c1F (stereo not drawn) [Example 127, 5-[2-[4-[4-[4-[(2,6-dioxo-3-piperidyl)amino]phenyl]piperidine-1-carbonyl]-1-piperidyl]pyrimidin-5-yl]-3-[3-[[ethyl(methyl)sulfamoyl]amino]-2,6-difluoro-benzoyl]-1H-pyrrolo[2,3-b]pyridine]	13.2 nM	7.62%
CCN(C)S(=O)(=O)Nc1ccc(F)c(C(=O)c2c[nH]c3ncc(-c4cnc(N5CCC(C(=O)NC6CCN(c7ccc(NC8CCC(=O)NC8=O)cc7F)CC6)CC5)nc4)cc23)c1F (stereo not drawn) [Example 128, N-[1-[4-[(2,6-dioxo-3-piperidyl)amino]-2-fluoro-phenyl]-4-piperidyl]-1-[5-[3-[3-[[ethyl(methyl)sulfamoyl]amino]-2,6-difluoro-benzoyl]-1H-pyrrolo[2,3-b]pyridin-5-yl]pyrimidin-2-yl]piperidine-4-carboxamide]	20.9 nM	14.6%
CCN(C)S(=O)(=O)Nc1ccc(F)c(C(=O)c2c[nH]c3ncc(-c4cnc(N5CC[C@@H](C(=O)N6CCC(c7ccc(NC8CCC(=O)NC8=O)cc7)CC6)C5)nc4)cc23)c1F (stereo partly drawn) [Example 129, 5-[2-[(3R)-3-[4-[4-[(2,6-dioxo-3-piperidyl)amino]phenyl]piperidine-1-carbonyl]pyrrolidin-1-yl]pyrimidin-5-yl]-3-[3-[[ethyl(methyl)sulfamoyl]amino]-2,6-difluoro-benzoyl]-1H-pyrrolo[2,3-b]pyridine]	5.11 nM	13.8%
CCN(C)S(=O)(=O)Nc1ccc(F)c(C(=O)c2c[nH]c3ncc(-c4cnc(N5CC[C@H](C(=O)N6CCC(c7ccc(NC8CCC(=O)NC8=O)cc7)CC6)C5)nc4)cc23)c1F (stereo partly drawn) [Example 130, 5-[2-[(3S)-3-[4-[4-[(2,6-dioxo-3-piperidyl)amino]phenyl]piperidine-1-carbonyl]pyrrolidin-1-yl]pyrimidin-5-yl]-3-[3-[[ethyl(methyl)sulfamoyl]amino]-2,6-difluoro-benzoyl]-1H-pyrrolo[2,3-b]pyridine]	9.73 nM	12.9%
